{"source": "patent US20070111251A1", "about": "“Chemical address tags” (priority 2003, published 2007)", "data": [{"system": "HeLa cells", "assay": "Kinetic imaging of NBD-triazine probe uptake and sequestration, fitted to nested two-compartment transport model", "assay_type": "cell-based", "settings": "median over optimal solutions within 5% of the best fit", "description": "In living cells, image data was simultaneously acquired with an automated, high-content, kinetic screening instrument equipped with an environmental chamber (see, e.g., V. C. Abraham, D. L. Taylor and J. R. Haskins, Trends in Biotechnology 22, 15 (2004); herein incorporated by reference in its entirety), as cells were incubated with the fluorescent molecules and after removal of extracellular probe. Data was analyzed off line, using an image analysis algorithm to measure the statistical pixel intensity distribution associated with fluorescence probe sequestration in the perinuclear region (see, e.g., FIG. 21; see also, e.g., G. J. Ding et al., Journal of Biological Chemistry 273, 28897 (1998); herein incorporated by reference in its entirety). Data was parametrized with a nested, two-compartment, transport model (see, e.g., W. E. Evans, J. J. Schentag and W. J. Jusko., Applied Pharmacokinetics: Principles of Therapeutic Drug Monitoring (Lippincott Williams & Wilkins, Vancouver, W.A., 1992); herein incorporated by reference in its entirety), using a statistical link function to relate the kinetic coefficient of variation (CV) of pixel intensities in the images with the concentration of probe in vesicles and cytoplasm. Optimal kinetic parameters fitting the experimental data for each probe to the system described by the two-compartment model and statistical link function were determined using the simulated annealing technique (see, e.g., M. Pincus., Oper. Res. 18, 1225 (1979); herein incorporated by reference in its entirety). The present invention is not limited to a particular mechanism. Indeed, an understanding of the mechanism is not necessary to practice the present invention.\nTo assess how well the model accounts for all the different kinetic traces acquired, a “PVE” (proportion of variance explained) by the model was calculated. The PVE is one minus the ratio of the sum of squared differences between observed and fitted values to the sum of squared differences between observed values and their mean. PVE values close to one indicate good fit to the nested two-compartment model. The average PVE across the probes was 0.92, with >50% of the probes yielded PVE values […]. The present invention is not limited to a particular mechanism. Indeed, an understanding of the mechanism is not necessary to practice the present invention.\nCell culture. HeLa cells were grown in RPMI+10% FCS in a 5% CO2 atmosphere at 37° C. and plated in 96-well plates at a density of 3000 cells/well 24 hours prior to the start of the experiment.\nKinetic Imaging. For influx experiments, cells on 96-well plates were switched to imaging media consisting of RPMI containing 1.0 mM Bromophenol Blue—a soluble, cell-impermeant chromophore used to suppress excitation and emission of extracellular (background) dye fluorescence-, 10 μM probe and 0.1 μM Hoescht 33258 to label the cell nuclei. Plates were then transferred to a KineticScan instrument (Cellomics, Inc., Pittsburgh, Pa.), which contains an environmentally controlled CO2/temperature/humidity chamber, and data was acquired with a 20× objective lens. Images acquisition began approximately 10 min after dye addition, using the Hoescht channel to acquire nuclear images and FITC channel to acquire the NBD image. Plate-scanning mode was used for scanning, in which the instrument builds time-stacks of images by scanning the plate multiple times, returning to the same site of the plate at every scan. For efflux experiments, dye-containing media was removed from the wells of the plate. The wells were washed twice with fresh RPMI medium, imaging media was added, and image acquisition restarted 7 min after the dye-containing media was removed. The last time points of the influx experiment served as the first time point of the efflux experiment. Plates were scanned for approximately two hours in the influx experiment and six hours for the efflux experiment, with each well imaged on average every 7 minutes. […]", "values": [{"smiles": "CC(C)CCNc1nc(NCCCCCCNc2ccc([N+](=O)[O-])c3nonc23)nc(NCc2ccccc2)n1", "note": "[Compound A8]", "median Pap(cyto) (apparent partition coefficient between extracellular medium and cytosol)": 3.75, "median Pap(ves) (apparent partition coefficient between cytosol and intracellular vesicles, k(ves)in/k(ves)out)": 63.22}, {"smiles": "COc1cccc(CNc2nc(NCCCCCCNc3ccc([N+](=O)[O-])c4nonc34)nc(NC3CCCCC3C)n2)c1", "note": "(stereo not shown) [Compound B5]", "median Pap(cyto) (apparent partition coefficient between extracellular medium and cytosol)": 9.10, "median Pap(ves) (apparent partition coefficient between cytosol and intracellular vesicles, k(ves)in/k(ves)out)": 9.25}, {"smiles": "COc1ccc(CCNc2nc(NCCCCCCNc3ccc([N+](=O)[O-])c4nonc34)nc(NCC3CCCCC3)n2)cc1", "note": "[Compound D6]", "median Pap(cyto) (apparent partition coefficient between extracellular medium and cytosol)": 141.76, "median Pap(ves) (apparent partition coefficient between cytosol and intracellular vesicles, k(ves)in/k(ves)out)": 0.24}, {"smiles": "CCCCCCCCNc1nc(NCCCCCCNc2ccc([N+](=O)[O-])c3nonc23)nc(NCc2cccc(F)c2)n1", "note": "[Compound E3]", "median Pap(cyto) (apparent partition coefficient between extracellular medium and cytosol)": 4.14, "median Pap(ves) (apparent partition coefficient between cytosol and intracellular vesicles, k(ves)in/k(ves)out)": 19.86}, {"smiles": "COc1ccc(CNc2nc(NCCCCCCNc3ccc([N+](=O)[O-])c4nonc34)nc(NC3CCCCC3C)n2)cc1", "note": "(stereo not shown) [Compound C5]", "median Pap(cyto) (apparent partition coefficient between extracellular medium and cytosol)": 10.01, "median Pap(ves) (apparent partition coefficient between cytosol and intracellular vesicles, k(ves)in/k(ves)out)": 9.72}, {"smiles": "O=[N+]([O-])c1ccc(NCCCCCCNc2nc(NCCC(c3ccccc3)c3ccccc3)nc(NC3CCCCC3)n2)c2nonc12", "note": "[Compound F7]", "median Pap(cyto) (apparent partition coefficient between extracellular medium and cytosol)": 3.33, "median Pap(ves) (apparent partition coefficient between cytosol and intracellular vesicles, k(ves)in/k(ves)out)": 8.01}, {"smiles": "COc1ccc(CNc2nc(NCCCCCCNc3ccc([N+](=O)[O-])c4nonc34)nc(NCCC(C)C)n2)cc1", "note": "[Compound C8]", "median Pap(cyto) (apparent partition coefficient between extracellular medium and cytosol)": 8.56, "median Pap(ves) (apparent partition coefficient between cytosol and intracellular vesicles, k(ves)in/k(ves)out)": 31.04}, {"smiles": "Cc1ccc(CNc2nc(NCCCCCCNc3ccc([N+](=O)[O-])c4nonc34)nc(NC3CCCCC3C)n2)cc1", "note": "(stereo not shown) [Compound G5]", "median Pap(cyto) (apparent partition coefficient between extracellular medium and cytosol)": 57.45, "median Pap(ves) (apparent partition coefficient between cytosol and intracellular vesicles, k(ves)in/k(ves)out)": 8.94}, {"smiles": "COc1ccc(CNc2nc(NCCCCCCNc3ccc([N+](=O)[O-])c4nonc34)nc(NC(C)C)n2)cc1", "note": "[Compound C2]", "median Pap(cyto) (apparent partition coefficient between extracellular medium and cytosol)": 239.41, "median Pap(ves) (apparent partition coefficient between cytosol and intracellular vesicles, k(ves)in/k(ves)out)": 1.03}, {"smiles": "COc1cccc(CNc2nc(NCCCCCCNc3ccc([N+](=O)[O-])c4nonc34)nc(NCC3CCCCC3)n2)c1", "note": "[Compound B6]", "median Pap(cyto) (apparent partition coefficient between extracellular medium and cytosol)": 242.54, "median Pap(ves) (apparent partition coefficient between cytosol and intracellular vesicles, k(ves)in/k(ves)out)": 0.36}, {"smiles": "CCCCCCCCNc1nc(NCCCCCCNc2ccc([N+](=O)[O-])c3nonc23)nc(NCCc2ccc(OC)cc2)n1", "note": "[Compound D3]", "median Pap(cyto) (apparent partition coefficient between extracellular medium and cytosol)": 2.75, "median Pap(ves) (apparent partition coefficient between cytosol and intracellular vesicles, k(ves)in/k(ves)out)": 101.21}, {"smiles": "COc1ccc(CNc2nc(NCCCCCCNc3ccc([N+](=O)[O-])c4nonc34)nc(NCCc3ccccn3)n2)cc1", "note": "[Compound C9]", "median Pap(cyto) (apparent partition coefficient between extracellular medium and cytosol)": 12.33, "median Pap(ves) (apparent partition coefficient between cytosol and intracellular vesicles, k(ves)in/k(ves)out)": 16.46}, {"smiles": "COc1cccc(CNc2nc(NCCCCCCNc3ccc([N+](=O)[O-])c4nonc34)nc(NCC3CCCCC3)n2)c1OC", "note": "[Compound H6]", "median Pap(cyto) (apparent partition coefficient between extracellular medium and cytosol)": 8.77, "median Pap(ves) (apparent partition coefficient between cytosol and intracellular vesicles, k(ves)in/k(ves)out)": 22.55}, {"smiles": "Cc1ccc(CNc2nc(NCCCCCCNc3ccc([N+](=O)[O-])c4nonc34)nc(NCCC(C)C)n2)cc1", "note": "[Compound G8]", "median Pap(cyto) (apparent partition coefficient between extracellular medium and cytosol)": 8.29, "median Pap(ves) (apparent partition coefficient between cytosol and intracellular vesicles, k(ves)in/k(ves)out)": 24.73}]}]}
